Data: US10206394B2, “Herbicidal compounds” (Syngenta Participations AG, priority 2014, dated 2019)
Where two headings read alike, the source gives them in different places.

Tests used:
Assay in all cases: Glasshouse assay for herbicidal activity (pre- and post-emergence), percentage phytotoxicity
Type in all cases: in vivo
Lolium perenne (LOLPE) = conditions: Lolium perenne
Summary of the method: (§1)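 Visually rated damage, 0–100%. PRE spray 1 d after sowing, scored 20 DAA; POST spray ~12 d, scored 15 DAA. Glasshouse at 65% humidity, 16 h day.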

[1] = test system: Alopecurus myosuroides (ALOMY); conditions: Alopecurus myosuroides
Summary of the method: as §1

[2] = test system: Echinochloa crus-galli (ECHCG); conditions: Echinochloa crus-galli
Summary of the method: as §1

Avena fatua (AVEFA) = conditions: Avena fatua
Summary of the method: as §1

[3] = post-emergence, 360 h, POST-emergence, rate 250 g/ha, visual score 15 DAA (100%=total damage, 0%=no damage), read-out: Post-emergence herbicidal activity (percentage phytotoxicity) LOLPE POST
[4] = pre-emergence, 480 h, PRE-emergence, rate 250 g/ha, visual score 20 DAA (100%=total damage, 0%=no damage), read-out: Pre-emergence herbicidal activity (percentage phytotoxicity) LOLPE PRE
[5] = post-emergence, 360 h, POST-emergence, rate 250 g/ha, visual score 15 DAA (100%=total damage, 0%=no damage), read-out: Post-emergence herbicidal activity (percentage phytotoxicity) ALOMY POST
[6] = pre-emergence, 480 h, PRE-emergence, rate 250 g/ha, visual score 20 DAA (100%=total damage, 0%=no damage), read-out: Pre-emergence herbicidal activity (percentage phytotoxicity) ALOMY PRE
[7] = post-emergence, 360 h, POST-emergence, rate 250 g/ha, visual score 15 DAA (100%=total damage, 0%=no damage), read-out: Post-emergence herbicidal activity (percentage phytotoxicity) ECHCG POST
[8] = pre-emergence, 480 h, PRE-emergence, rate 250 g/ha, visual score 20 DAA (100%=total damage, 0%=no damage), read-out: Pre-emergence herbicidal activity (percentage phytotoxicity) ECHCG PRE
[9] = post-emergence, 360 h, POST-emergence, rate 250 g/ha, visual score 15 DAA (100%=total damage, 0%=no damage), read-out: Post-emergence herbicidal activity (percentage phytotoxicity) AVEFA POST
[10] = pre-emergence, 480 h, PRE-emergence, rate 250 g/ha, visual score 20 DAA (100%=total damage, 0%=no damage), read-out: Pre-emergence herbicidal activity (percentage phytotoxicity) AVEFA PRE
[11] = post-emergence, 360 h, Rate 250 g/ha, post-emergence, visual assessment 15 DAA, 100%=total damage, 0%=no damage, read-out: Post-emergence herbicidal activity (percentage phytotoxicity) LOLPE POST
[12] = pre-emergence, 480 h, Rate 250 g/ha, pre-emergence, visual assessment 20 DAA, 100%=total damage, 0%=no damage, read-out: Pre-emergence herbicidal activity (percentage phytotoxicity) LOLPE PRE
[13] = post-emergence, 360 h, Rate 250 g/ha, post-emergence, visual assessment 15 DAA, 100%=total damage, 0%=no damage, read-out: Post-emergence herbicidal activity (percentage phytotoxicity) ALOMY POST
[14] = pre-emergence, 480 h, Rate 250 g/ha, pre-emergence, visual assessment 20 DAA, 100%=total damage, 0%=no damage, read-out: Pre-emergence herbicidal activity (percentage phytotoxicity) ALOMY PRE
[15] = post-emergence, 360 h, Rate 250 g/ha, post-emergence, visual assessment 15 DAA, 100%=total damage, 0%=no damage, read-out: Post-emergence herbicidal activity (percentage phytotoxicity) ECHCG POST
[16] = pre-emergence, 480 h, Rate 250 g/ha, pre-emergence, visual assessment 20 DAA, 100%=total damage, 0%=no damage, read-out: Pre-emergence herbicidal activity (percentage phytotoxicity) ECHCG PRE
[17] = post-emergence, 360 h, Rate 250 g/ha, post-emergence, visual assessment 15 DAA, 100%=total damage, 0%=no damage, read-out: Post-emergence herbicidal activity (percentage phytotoxicity) AVEFA POST
[18] = pre-emergence, 480 h, Rate 250 g/ha, pre-emergence, visual assessment 20 DAA, 100%=total damage, 0%=no damage, read-out: Pre-emergence herbicidal activity (percentage phytotoxicity) AVEFA PRE
[19] = post-emergence, 360 h, 250 g/ha, post-emergence, 15 DAA, visual assessment (100%=total damage, 0%=no damage), read-out: Post-emergence herbicidal activity (percentage phytotoxicity) LOLPE POST
[20] = pre-emergence, 480 h, 250 g/ha, pre-emergence, 20 DAA, visual assessment (100%=total damage, 0%=no damage), read-out: Pre-emergence herbicidal activity (percentage phytotoxicity) LOLPE PRE
[21] = post-emergence, 360 h, 250 g/ha, post-emergence, 15 DAA, visual assessment (100%=total damage, 0%=no damage), read-out: Post-emergence herbicidal activity (percentage phytotoxicity) ALOMY POST
[22] = pre-emergence, 480 h, 250 g/ha, pre-emergence, 20 DAA, visual assessment (100%=total damage, 0%=no damage), read-out: Pre-emergence herbicidal activity (percentage phytotoxicity) ALOMY PRE
[23] = post-emergence, 360 h, 250 g/ha, post-emergence, 15 DAA, visual assessment (100%=total damage, 0%=no damage), read-out: Post-emergence herbicidal activity (percentage phytotoxicity) ECHCG POST
[24] = pre-emergence, 480 h, 250 g/ha, pre-emergence, 20 DAA, visual assessment (100%=total damage, 0%=no damage), read-out: Pre-emergence herbicidal activity (percentage phytotoxicity) ECHCG PRE
[25] = post-emergence, 360 h, 250 g/ha, post-emergence, 15 DAA, visual assessment (100%=total damage, 0%=no damage), read-out: Post-emergence herbicidal activity (percentage phytotoxicity) AVEFA POST
[26] = pre-emergence, 480 h, 250 g/ha, pre-emergence, 20 DAA, visual assessment (100%=total damage, 0%=no damage), read-out: Pre-emergence herbicidal activity (percentage phytotoxicity) AVEFA PRE

SMILES	pest or weed control at 250 g/ha (Lolium perenne (LOLPE); [3]) [%]	pest or weed control at 250 g/ha (Lolium perenne (LOLPE); [4]) [%]	pest or weed control at 250 g/ha [1, 5] [%]	pest or weed control at 250 g/ha [1, 6] [%]	pest or weed control at 250 g/ha [2, 7] [%]	pest or weed control at 250 g/ha [2, 8] [%]	pest or weed control at 250 g/ha (Avena fatua (AVEFA); [9]) [%]	pest or weed control at 250 g/ha (Avena fatua (AVEFA); [10]) [%]	other results
CCNC(=O)CC1CC(=O)C(c2c(C)cc(-c3ncc(F)cc3F)cc2C)C1=O (stereo not drawn) [Compound B201]	100	100	100	100	100	100	100	100	
C/C=C/c1cc(C)c(C2C(=O)CC(CC(=O)NCc3ccc(C#N)cc3)C2=O)c(CC)c1 (stereo not drawn) [Compound B191]	90	70	50	60	100	80	90	40	
C=C(C)CNC(=O)CC1CC(=O)C(c2c(C)cc(-c3ncc(Cl)cn3)cc2C)C1=O (stereo not drawn) [Compound B341]									pest or weed control at 250 g/ha (Lolium perenne (LOLPE); [11]): 100%; pest or weed control at 250 g/ha (Lolium perenne (LOLPE); [12]): 80%; pest or weed control at 250 g/ha [1, 13]: 100%; pest or weed control at 250 g/ha [1, 14]: 100%; pest or weed control at 250 g/ha [2, 15]: 100%; pest or weed control at 250 g/ha [2, 16]: 100%; pest or weed control at 250 g/ha (Avena fatua (AVEFA); [17]): 100%; pest or weed control at 250 g/ha (Avena fatua (AVEFA); [18]): 80%
Cc1cc(-c2ccc(C#N)cn2)cc(C)c1C1C(=O)CC(CC(=O)N2CCOCC2)C1=O (stereo not drawn) [Compound B321]	90	90	90	70	100	100	100	80	
C#CC(C)(C)NC(=O)CC1CC(=O)C(c2c(C)cc(-c3ccc(F)cn3)cc2C)C1=O (stereo not drawn) [Compound B388]									pest or weed control at 250 g/ha (Lolium perenne (LOLPE); [11]): 90%; pest or weed control at 250 g/ha (Lolium perenne (LOLPE); [12]): 90%; pest or weed control at 250 g/ha [1, 13]: 90%; pest or weed control at 250 g/ha [1, 14]: 90%; pest or weed control at 250 g/ha [2, 15]: 100%; pest or weed control at 250 g/ha [2, 16]: 100%; pest or weed control at 250 g/ha (Avena fatua (AVEFA); [17]): 100%; pest or weed control at 250 g/ha (Avena fatua (AVEFA); [18]): 90%
Cc1ccc(-c2cc(C)c(C3C(=O)CC(CC(=O)NCc4cccc(C(F)(F)F)c4)C3=O)c(C)c2)nc1 (stereo not drawn) [Compound A158]									pest or weed control at 250 g/ha (Lolium perenne (LOLPE); post-emergence, 360 h, Rate 250 g/ha, post-emergence, assessed visually 15 DAA, 100%=total damage, 0%=no damage, read-out: Post-emergence herbicidal activity (percentage phytotoxicity) LOLPE POST): 80%; pest or weed control at 250 g/ha (Lolium perenne (LOLPE); pre-emergence, 480 h, Rate 250 g/ha, pre-emergence, assessed visually 20 DAA, 100%=total damage, 0%=no damage, read-out: Pre-emergence herbicidal activity (percentage phytotoxicity) LOLPE PRE): 60%; pest or weed control at 250 g/ha ([1]; post-emergence, 360 h, Rate 250 g/ha, post-emergence, assessed visually 15 DAA, 100%=total damage, 0%=no damage, read-out: Post-emergence herbicidal activity (percentage phytotoxicity) ALOMY POST): 70%; pest or weed control at 250 g/ha ([1]; pre-emergence, 480 h, Rate 250 g/ha, pre-emergence, assessed visually 20 DAA, 100%=total damage, 0%=no damage, read-out: Pre-emergence herbicidal activity (percentage phytotoxicity) ALOMY PRE): 20%; pest or weed control at 250 g/ha ([2]; post-emergence, 360 h, Rate 250 g/ha, post-emergence, assessed visually 15 DAA, 100%=total damage, 0%=no damage, read-out: Post-emergence herbicidal activity (percentage phytotoxicity) ECHCG POST): 90%; pest or weed control at 250 g/ha ([2]; pre-emergence, 480 h, Rate 250 g/ha, pre-emergence, assessed visually 20 DAA, 100%=total damage, 0%=no damage, read-out: Pre-emergence herbicidal activity (percentage phytotoxicity) ECHCG PRE): 80%; pest or weed control at 250 g/ha (Avena fatua (AVEFA); post-emergence, 360 h, Rate 250 g/ha, post-emergence, assessed visually 15 DAA, 100%=total damage, 0%=no damage, read-out: Post-emergence herbicidal activity (percentage phytotoxicity) AVEFA POST): 70%; pest or weed control at 250 g/ha (Avena fatua (AVEFA); pre-emergence, 480 h, Rate 250 g/ha, pre-emergence, assessed visually 20 DAA, 100%=total damage, 0%=no damage, read-out: Pre-emergence herbicidal activity (percentage phytotoxicity) AVEFA PRE): 20%
Cc1cc(-c2ncc(Cl)cc2C#N)cc(C)c1C1C(=O)CC(CC(=O)NC(C)(C)C)C1=O (stereo not drawn) [Compound B48]									pest or weed control at 250 g/ha (Lolium perenne (LOLPE); [19]): 90%; pest or weed control at 250 g/ha (Lolium perenne (LOLPE); [20]): 80%; pest or weed control at 250 g/ha [1, 21]: 80%; pest or weed control at 250 g/ha [1, 22]: 90%; pest or weed control at 250 g/ha [2, 23]: 100%; pest or weed control at 250 g/ha [2, 24]: 90%; pest or weed control at 250 g/ha (Avena fatua (AVEFA); [25]): 80%; pest or weed control at 250 g/ha (Avena fatua (AVEFA); [26]): 30%
C=C(F)CNC(=O)CC1CC(=O)C(c2c(C)cc(-c3ncc(F)cc3F)cc2C)C1=O (stereo not drawn) [Compound B304]	100	100	100	100	100	90	100	100	
Cc1cc(C)c(C2C(=O)CC(CC(=O)NC/C=C/Br)C2=O)c(C)c1 (stereo not drawn) [Compound B115]									pest or weed control at 250 g/ha (Lolium perenne (LOLPE); [19]): 100%; pest or weed control at 250 g/ha (Lolium perenne (LOLPE); [20]): 100%; pest or weed control at 250 g/ha [1, 21]: 80%; pest or weed control at 250 g/ha [1, 22]: 80%; pest or weed control at 250 g/ha [2, 23]: 90%; pest or weed control at 250 g/ha [2, 24]: 100%; pest or weed control at 250 g/ha (Avena fatua (AVEFA); [25]): 80%; pest or weed control at 250 g/ha (Avena fatua (AVEFA); [26]): 50%
COc1ccc(CNC(=O)CC2CC(=O)C(c3c(C)cc(-c4ncc(Cl)cn4)cc3C)C2=O)cc1 (stereo not drawn) [Compound B356]									pest or weed control at 250 g/ha (Lolium perenne (LOLPE); [11]): 100%; pest or weed control at 250 g/ha (Lolium perenne (LOLPE); [12]): 80%; pest or weed control at 250 g/ha [1, 13]: 90%; pest or weed control at 250 g/ha [1, 14]: 60%; pest or weed control at 250 g/ha [2, 15]: 100%; pest or weed control at 250 g/ha [2, 16]: 100%; pest or weed control at 250 g/ha (Avena fatua (AVEFA); [17]): 100%; pest or weed control at 250 g/ha (Avena fatua (AVEFA); [18]): 60%
Cc1cc(-c2ncc(F)cc2F)cc(C)c1C1C(=O)CC(CC(=O)NCc2ccc(C#N)cc2)C1=O (stereo not drawn) [Compound B199]	90	70	100	80	100	50	100	60	
C/C=C/c1cc(C)c(C2C(=O)CC(CC(=O)NC(C)(C)C)C2=O)c(C)c1 (stereo not drawn) [Compound B173]	80	90	90	90	90	90	80	60	
